Laboratory results from patent US11116735B2, “Use of substituted benzylideneguanidine derivatives as synergists for polymyxin antibiotics” (GUANGZHOU INSIGHTER BIOTECHNOLOGY CO., LTD., priority 2015, dated 2021).

Columns and labels:
E. coli 3Y-9 = assay: MIC by doubling dilution, colistin sulfate-susceptible E. coli 3Y-9; type: cell-based, Escherichia coli; conditions: for In vitro minimum inhibitory concentration (MIC) of the substance alone: E. coli 3Y-9, colistin sulfate-susceptible, derivatives as hydrochlorides; for In vitro MIC of colistin sulfate in the presence of the substituted benzylideneguanidine derivative: E. coli 3Y-9, culture comprised 20.0 ppm of the derivative (hydrochloride), colistin sulfate serially diluted
E. coli 2S-19 = assay: MIC by doubling dilution, colistin sulfate-susceptible E. coli 2S-19; type: cell-based, Escherichia coli; conditions: for In vitro minimum inhibitory concentration (MIC) of the substance alone: E. coli 2S-19, colistin sulfate-susceptible, derivatives as hydrochlorides; for In vitro MIC of colistin sulfate in the presence of the substituted benzylideneguanidine derivative: E. coli 2S-19, culture comprised 20.0 ppm of the derivative (hydrochloride), colistin sulfate serially diluted
E. coli 5W-7 = assay: MIC by doubling dilution, colistin sulfate-susceptible E. coli 5W-7; type: cell-based, Escherichia coli; conditions: for In vitro minimum inhibitory concentration (MIC) of the substance alone: E. coli 5W-7, colistin sulfate-susceptible, derivatives as hydrochlorides; for In vitro MIC of colistin sulfate in the presence of the substituted benzylideneguanidine derivative: E. coli 5W-7, culture comprised 20.0 ppm of the derivative (hydrochloride), colistin sulfate serially diluted
E. coli 3B-24 = assay: MIC by doubling dilution, colistin sulfate-susceptible E. coli 3B-24; type: cell-based, Escherichia coli; conditions: for In vitro minimum inhibitory concentration (MIC) of the substance alone: E. coli 3B-24, colistin sulfate-susceptible, derivatives as hydrochlorides; for In vitro MIC of colistin sulfate in the presence of the substituted benzylideneguanidine derivative: E. coli 3B-24, culture comprised 20.0 ppm of the derivative (hydrochloride), colistin sulfate serially diluted
weanling piglets = assay: Synergy of derivatives and colistin sulfate in the feed for weanling piglets; type: in vivo, Duroc×Landrace×Large crossbred lean weanling piglets; conditions: creep feed with 20 ppm colistin sulfate and 150 ppm derivative (hydrochloride), ten days
Protocol: 90 28-day-aged Duroc×Landrace×Large crossbred lean weanling piglets similar in weight were divided into 9 groups, 10 piglets in each group. For each group, colistin sulfate and/or various substituted benzylideneguanidine derivatives were added into the antibiotic-free creep feed. The piglets were given ad libitum access to feed and water during the experiment. Weight gain, feed efficiency and diarrhea rate of each group within ten days were recorded.

E. coli 2G-7 = assay: MIC by doubling dilution, colistin sulfate-resistant E. coli 2G-7; conditions: for In vitro minimum inhibitory concentration (MIC) of the substance alone: E. coli 2G-7, colistin sulfate-resistant, derivatives as hydrochlorides; for In vitro MIC of colistin sulfate in the presence of the substituted benzylideneguanidine derivative: E. coli 2G-7, resistant, culture comprised 20.0 ppm of the derivative (hydrochloride)
E. coli 5F-1 = assay: MIC by doubling dilution, colistin sulfate-resistant E. coli 5F-1; conditions: for In vitro minimum inhibitory concentration (MIC) of the substance alone: E. coli 5F-1, colistin sulfate-resistant, derivatives as hydrochlorides; for In vitro MIC of colistin sulfate in the presence of the substituted benzylideneguanidine derivative: E. coli 5F-1, resistant, culture comprised 20.0 ppm of the derivative (hydrochloride)
E. coli 4D-6 = assay: MIC by doubling dilution, colistin sulfate-resistant E. coli 4D-6; conditions: for In vitro minimum inhibitory concentration (MIC) of the substance alone: E. coli 4D-6, colistin sulfate-resistant, derivatives as hydrochlorides; for In vitro MIC of colistin sulfate in the presence of the substituted benzylideneguanidine derivative: E. coli 4D-6, resistant, culture comprised 20.0 ppm of the derivative (hydrochloride)
E. coli 3H-4 = assay: MIC by doubling dilution, colistin sulfate-resistant E. coli 3H-4; conditions: for In vitro minimum inhibitory concentration (MIC) of the substance alone: E. coli 3H-4, colistin sulfate-resistant, derivatives as hydrochlorides; for In vitro MIC of colistin sulfate in the presence of the substituted benzylideneguanidine derivative: E. coli 3H-4, resistant, culture comprised 20.0 ppm of the derivative (hydrochloride)

Structure (SMILES)	In vitro minimum inhibitory concentration (MIC) of the substance alone (E. coli 3Y-9) [ppm]	In vitro MIC of colistin sulfate in the presence of the substituted benzylideneguanidine derivative (E. coli 3Y-9) [ppm]	In vitro minimum inhibitory concentration (MIC) of the substance alone (E. coli 2S-19) [ppm]	In vitro MIC of colistin sulfate in the presence of the substituted benzylideneguanidine derivative (E. coli 2S-19) [ppm]	In vitro minimum inhibitory concentration (MIC) of the substance alone (E. coli 5W-7) [ppm]	In vitro MIC of colistin sulfate in the presence of the substituted benzylideneguanidine derivative (E. coli 5W-7) [ppm]	In vitro minimum inhibitory concentration (MIC) of the substance alone (E. coli 3B-24) [ppm]	In vitro MIC of colistin sulfate in the presence of the substituted benzylideneguanidine derivative (E. coli 3B-24) [ppm]	In vitro minimum inhibitory concentration (MIC) of the substance alone (E. coli 2G-7) [ppm]	In vitro MIC of colistin sulfate in the presence of the substituted benzylideneguanidine derivative (E. coli 2G-7) [ppm]	In vitro minimum inhibitory concentration (MIC) of the substance alone (E. coli 5F-1) [ppm]	In vitro MIC of colistin sulfate in the presence of the substituted benzylideneguanidine derivative (E. coli 5F-1) [ppm]	In vitro minimum inhibitory concentration (MIC) of the substance alone (E. coli 4D-6) [ppm]	In vitro MIC of colistin sulfate in the presence of the substituted benzylideneguanidine derivative (E. coli 4D-6) [ppm]	In vitro minimum inhibitory concentration (MIC) of the substance alone (E. coli 3H-4) [ppm]	In vitro MIC of colistin sulfate in the presence of the substituted benzylideneguanidine derivative (E. coli 3H-4) [ppm]	Average daily weight gain (weanling piglets) [g]	Diarrhea rate (weanling piglets) [%]	Feed conversion ratio (weanling piglets)
COc1ccc(C=NN=C(N)NN=Cc2ccc(OC)cc2)cc1 [Compound 1]	>800	1.00	>800	1.00	>800	0.50	>800	1.00	>800	1.0	>800	2.0	>800	4.0	>800	2.0	243	18	1.529
CCCCCCCCOc1ccc(C=NNC(=N)NN=Cc2ccc(OCCCCCCCC)cc2)cc1 [Compound 4]	>800	1.00	>800	1.00	>800	0.50	>800	1.00	>800	4.0	>800	8.0	>800	16	>800	4	239	19	1.532

Now from value to compound, other results behind:

In vitro minimum inhibitory concentration (MIC) of the substance alone (E. coli 3Y-9) [ppm]	In vitro MIC of colistin sulfate in the presence of the substituted benzylideneguanidine derivative (E. coli 3Y-9) [ppm]	In vitro minimum inhibitory concentration (MIC) of the substance alone (E. coli 2S-19) [ppm]	In vitro MIC of colistin sulfate in the presence of the substituted benzylideneguanidine derivative (E. coli 2S-19) [ppm]	In vitro minimum inhibitory concentration (MIC) of the substance alone (E. coli 5W-7) [ppm]	In vitro MIC of colistin sulfate in the presence of the substituted benzylideneguanidine derivative (E. coli 5W-7) [ppm]	In vitro minimum inhibitory concentration (MIC) of the substance alone (E. coli 3B-24) [ppm]	In vitro MIC of colistin sulfate in the presence of the substituted benzylideneguanidine derivative (E. coli 3B-24) [ppm]	In vitro minimum inhibitory concentration (MIC) of the substance alone (E. coli 2G-7) [ppm]	In vitro MIC of colistin sulfate in the presence of the substituted benzylideneguanidine derivative (E. coli 2G-7) [ppm]	In vitro minimum inhibitory concentration (MIC) of the substance alone (E. coli 5F-1) [ppm]	In vitro MIC of colistin sulfate in the presence of the substituted benzylideneguanidine derivative (E. coli 5F-1) [ppm]	In vitro minimum inhibitory concentration (MIC) of the substance alone (E. coli 4D-6) [ppm]	In vitro MIC of colistin sulfate in the presence of the substituted benzylideneguanidine derivative (E. coli 4D-6) [ppm]	In vitro minimum inhibitory concentration (MIC) of the substance alone (E. coli 3H-4) [ppm]	In vitro MIC of colistin sulfate in the presence of the substituted benzylideneguanidine derivative (E. coli 3H-4) [ppm]	Structure (SMILES)	Average daily weight gain (weanling piglets) [g]	Diarrhea rate (weanling piglets) [%]	Feed conversion ratio (weanling piglets)
>800	2.00	>800	1.00	>800	1.00	>800	2.00	>800	8	>800	16	>800	32	>800	8	CCC(CC)Oc1ccc(C=NN=C(N)NN=Cc2ccc(OC(CC)CC)cc2)cc1 [Compound 5]	231	25	1.565
>800	2.00	>800	1.00	>800	0.50	>800	1.00	>800	8	>800	16	>800	32	>800	8	N=C(NN=Cc1ccc(OC(F)(F)F)cc1)NN=Cc1ccc(OC(F)(F)F)cc1 [Compound 16]			
>800	1.00	>800	1.00	>800	0.50	>800	0.50	>800	4	>800	8	>800	16	>800	4	N#Cc1ccc(C=NN=C(N)NN=Cc2ccc(C#N)cc2)cc1 [Compound 13]			
>800	1.00	>800	1.00	>800	0.50	>800	1.00	>800	4	>800	8	>800	16	>800	4	COC(=O)c1ccc(C=NN=C(N)NN=Cc2ccc(C(=O)OC)cc2)cc1 [Compound 12]			
